Data as given in PMC10226132, “First-in-Class Selective Inhibitors of the Lysine Acetyltransferase KAT8” (Journal of Medicinal Chemistry, 2023).

What was measured:
[1] = test system: U251 cells; experiment: MTT cell proliferation assay, U251; assay type: cell-based, human; conditions: 10, 25, 50, 100 μM, 72 h
Text: Human commercially available AML U937, breast cancer MCF7, lung adenocarcinoma NCI-H460, H1299 and A-549, glioblastoma U251, B lymphocyte AHH1 cell lines were maintained in compete 10% foetal bovine serum (FBS,) RPMI 1640 (Euroclone, Milan, IT) medium. Human commercially available colon cancer HCT116 and HT29 lines and cervix adenocarcinoma HeLa cells were maintained in compete 10% FBS Dulbecco’s Modified Eagle Medium (DMEM) high glucose medium (Euroclone). L-Glutamine, FBS, and penicillin streptomycin mixture added to medium were obtained from Euroclone. All cell lines were cultured at 37 °C in a humidified atmosphere of 5% CO2:95% air and were tested for mycoplasma contamination routinely by RT-PCR.
For analysis of cell proliferation, cells were plated in sextuplicate on 96-well plates in complete media. After 24 h, cells were exposed to different drugs for 72 h. The inhibitory effect of different drugs was assessed by MTT (Sigma, St. Louis, MO, USA) colorimetric assays as previously reported.[67] Aqueous DMSO (0.5% v/v) was used as a control (untreated). The results are reported as “viability of drug-treated cells/viability of untreated cells” × 100 and represent the average ±SD of three independent experiments. IC50 values were using fitted by nonlinear regression using GraphPad Prism 8.0.

[2] = test system: HCT116 cells; experiment: Annexin V/PI analysis, HCT116; assay type: cell-based, human; conditions: 72 h; for apoptotic effect in combination with chloroquine (Annexin V), HCT116: 100 μM compound + CQ 10 μM; for apoptotic cell population (Annexin V), HCT116: 50 and 100 μM, compared to control
Description: For the analysis of the progression of cells through cell cycle phases and sub-G1 peak identification, 24 h after plating, cells were treated with the different compounds. After 72 h, both floating and adherent cells were collected and fixed with cold 70% ethanol. At least 24 h after fixation, cells were incubated with 0.025 mg/mL Propidium Iodide for 15 min at room temperature and analyzed. For Annexin V analysis, 24 h after plating, cells were treated with 50 and 100 μM of the compounds. In the case of chloroquine experiments, 10 μM chloroquine (Sigma-Aldrich, A9165) was added 30 min before compounds. 72 h after treatment, both floating and adherent cells were collected and stained with an Annexin V-FITC apoptosis detection kit (ENZO #ALX-850-020-KI). Samples were incubated 15 min in the dark at rt, and 10,000 events were then analyzed.

[3] = test system: H3K27Ac in HT29 cells; experiment: Immunofluorescence of H3K27Ac in HT29 cells; assay type: cell-based, human; conditions: 24 h, vs control
Description: For IF analysis, 1 × 10^5 HT-29 cells were grown on sterile coverslips. After 24 h, cells were exposed to different compounds for 24 h. IF staining for different acetylated lysine residues of histone H3 (H3K27Ac) and H4 (H4K16Ac) were carried out on PFA-fixed cells blocked with 20% goat serum in PBS and incubated overnight at 4 °C with primary rabbit monoclonal antibodies histone H3K27Ac (D5E4, Rabbit mAb#8173) and H4K16Ac (E2B8W, Rabbit mAb#13534, Cell Signalling Technology). Primary antibodies were detected using rabbit anti-IgG secondary antibodies conjugated with Cy3 (Jackson Immunoresearch 711-165-152). DNA was stained using 0.05 μg/mL 4′,6-diamidino-2-phenylindole (DAPI). The samples were acquired using an Olympus AX70 (Olympus America Inc.) microscope. Serial Z stacks of 0.4 μm thickness were acquired, taking care to cover the entire cell volume. For quantification of fluorescence intensity signals, images of untreated or treated cells were analyzed and processed using opensource Cell Profiler 4.1.3 image analysis software (https://cellprofiler.org/) to measure fluorescence-integrated intensity values for antibody binding relating to individual cells as previously reported.[67]

[4] = test system: H1299-EGFP-LC3 cells; experiment: Fluorescence microscopy of autophagosomes in EGFP-LC3 H1299 cells; assay type: cell-based, human; conditions: increasing doses, 48 h
Description: The stable EGFP-LC3 H1299 cell line was used to detect autophagic structures by fluorescence spinning disk microscopy. Cells were grown on glass coverslips, treated with compounds for 48 h and fixed in 3.7% formaldehyde (Sigma, F1635) DNA was counterstained with 0.05 μg/mL DAPI (4,6-diamidino-2-phenylindole; Sigma-Aldrich, D9542). At least 500 cells were counted for each experimental point, and cells showing ≥15 dots were considered positive. Dots were counted using a pipeline created in a previous work on the CellProfiler software.[68] Data are presented as median with interquartile range. Samples were observed under a Nikon Eclipse Ti2 microscope with a 60× (1.4 NA) objective, equipped with a CrestOptics X-Light V3 confocal spinning disk and a back illuminated Kinetix sCMOS camera.

[5] = HPLC-based analysis of thiol reactivity; assay type: physicochemical; conditions: 0.5 mM compound, 2 mM DTT, BME or GSH, pH 7.5, 1, 8 or 24 h at room temperature
Description: Compounds 19 and 34 were dissolved in a solution containing 100 mM NaCl and 40 mM Tris·HCl (pH 7.5) with the addition of DTT, BME, or GSH (each at 2 mM) to a final concentration of 0.5 mM and incubated for 1, 8, and 24 h at rt. HPLC analysis was then performed at three wavelengths (254, 286, and 395 nm) under the same conditions described in the “Chemistry” paragraph of the Experimental Section.

[6] = target: T1, KAT8 (Homo sapiens, UniProt Q9H7Z6); experiment: SPR-based KAT8 binding assay; conditions: immobilized KAT8, 25 °C, read-out: equilibrium dissociation constant (KD)
T1 construct: using the previously purified KAT8 (173–458, 5 nM); 6xHis tag with TEV protease cleavage site (N, cleaved yes); made in house; host or cells: E. coli BL21(DE3)
T1 sequence (Q9H7Z6 173-458): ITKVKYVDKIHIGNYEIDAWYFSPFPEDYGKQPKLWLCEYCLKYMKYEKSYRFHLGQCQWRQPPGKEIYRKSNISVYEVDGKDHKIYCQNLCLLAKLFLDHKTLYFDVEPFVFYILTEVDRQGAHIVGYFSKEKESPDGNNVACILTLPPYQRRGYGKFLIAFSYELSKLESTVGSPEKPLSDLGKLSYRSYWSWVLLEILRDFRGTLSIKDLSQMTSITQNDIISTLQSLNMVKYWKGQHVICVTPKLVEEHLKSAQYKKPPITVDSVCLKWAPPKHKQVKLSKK
Description: SPR analyses were performed on a Biacore 3000 optical biosensor (GE Healthcare) equipped with a research-grade CM5 sensor chip. KAT8 was immobilized (30 μg/mL in 10 mM sodium acetate, pH 4.5) at a flow rate of 10 μL/min by using a standard amine-coupling protocol to obtain a density of 12 kRU. One flow cell was left empty for background subtractions. Both compounds, dissolved in DMSO (100%), were diluted in assay buffer (150 mM NaCl, 10 mM HEPES pH 7.4, 0.005% Tween-20), always maintaining a final 1% DMSO concentration. Binding experiments were performed at 25 °C by using a flow rate of 30 μL/min, with 120 s monitoring of association and 200 s monitoring of dissociation. Regeneration of the surfaces was performed, when necessary, by a 10 s injection of 1 mM NaOH.

SMILES | antiproliferative activity in U251 [1] | apoptotic effect in combination with chloroquine (Annexin V), HCT116 [2] | apoptotic cell population (Annexin V), HCT116 [2] | levels of histone H3K27Ac (IF) [3] | EGFP-LC3 dots per cell [4] | reaction with thiol-containing nucleophiles (HPLC) [5] | Kd [6]
CC1=NN(c2ccc(C(=O)O)cc2)C(=O)/C1=C\c1ccc[nH]1 [Compound 19, (Z)-4-(4-((1H-Pyrrol-2-yl)methylene)-3-methyl-5-oxo-4,5-dihydro-1H-pyrazol-1-yl)benzoic Acid] | neither inhibitor had any effect | increased the apoptotic effect | only a slight increase in apoptotic cell population | no significant differences | significantly increased | no evidence of reaction | 4.94 ± 0.18 µM
O=C(O)c1ccc(N2N=C(c3ccccc3)/C(=C/c3ccc[nH]3)C2=O)cc1 [Compound 34, (Z)-4-(4-((1H-Pyrrol-2-yl)methylene)-5-oxo-3-phenyl-4,5-dihydro-1H-pyrazol-1-yl)benzoic Acid] | neither inhibitor had any effect | increased the apoptotic effect | only a slight increase in apoptotic cell population | no significant differences | significantly increased | no evidence of reaction | 2.04 ± 0.24 µM
